# Experimental data as given in patent US20250195472A1, “Indole Alkaloid as Antineoplastic Agent” (NAPP TECNOLOGIAS, S.A. DE C.V., priority 2021, published 2025).
# How the values were obtained:
# [1] = system: U-251 (central nervous system); assay: Sulforhodamine B growth inhibition, U-251 (central nervous system); format: cell-based, human; conditions: for inhibition at 100 µM: Homo sapiens, U-251, read-out: Growth inhibition by cell line (%) U-251
# Procedure: (§1) For the evaluation of the cytotoxic effect of Andranone on neoplastic cells, 6 cell lines were used:
# (§2) HCT-15 (colon), MCF-7 (breast), K-562 (leukemia), U-251 (central nervous system), PC-3 (prostate), SKUL (lung) and COST-7 (cervical uterus) from the National Cancer Institute (NCI) of the United States. The cytotoxicity of Andranone was determined in sixfold microcultures using preferable Andranone concentrations between 0.1 and 1.0 μM, more specifically between 0.1 and 0.6 μM and mostly between 0.1 and 0.3 μM. Cell viability and growth were measured indirectly by the sulforhodamine B method according to procedures validated by the NCI, using salicylic acid and Mezalasin as negative control compounds, and Cis-platinum as a control antineoplastic drug at concentrations of 100 μM.
# [2] = system: K-562 (leukemia); assay: Sulforhodamine B growth inhibition, K-562 (leukemia); format: cell-based, human; conditions: for inhibition at 100 µM: Homo sapiens, K562, read-out: Growth inhibition by cell line (%) K-562
# Procedure: as §1, §2
# [3] = system: COST-7 (cervical uterus); assay: Sulforhodamine B growth inhibition, COST-7 (cervical uterus); format: cell-based, human; conditions: for inhibition at 100 µM: Homo sapiens, read-out: Growth inhibition by cell line (%) COST-7
# Procedure: as §1, §2
# [4] = system: PC-3 (prostate); assay: Sulforhodamine B growth inhibition, PC-3 (prostate); format: cell-based, human; conditions: for inhibition at 100 µM: Homo sapiens, read-out: Growth inhibition by cell line (%) PC-3
# Procedure: as §1, §2
# [5] = system: SKUL (lung); assay: Sulforhodamine B growth inhibition, SKUL (lung); format: cell-based, human; conditions: for inhibition at 100 µM: Homo sapiens, read-out: Growth inhibition by cell line (%) SKUL
# Procedure: as §1, §2
# [6] = system: HCT-15 (colon); assay: Sulforhodamine B growth inhibition, HCT-15 (colon); format: cell-based, human; conditions: for inhibition at 100 µM: Homo sapiens, HCT-15, read-out: Growth inhibition by cell line (%) HTC-15
# Procedure: as §1, §2
# [7] = system: MCF-7 (breast); assay: Sulforhodamine B growth inhibition, MCF-7 (breast); format: cell-based, human; conditions: for inhibition at 100 µM: Homo sapiens, MCF7, read-out: Growth inhibition by cell line (%) MCF-7
# Procedure: as §1, §2
# [8] = system: U-251 cell line; assay: Fluorescence analysis of effect on the cell membrane; format: cell-based, human; conditions: high and low concentration (10 and 100 μM)
# Procedure: To determine the Andranone action mechanism on neoplastic cells, a fluorescence analysis was performed on cells of the U-251 cell line treated with 10 and 100 μM of cis-platinum and 0.1 and 0.2 μM of Andranone.
# [9] = system: L-929 (Mouse fibrosarcoma); assay: In vitro cytotoxic activity IC50, L-929; format: cell-based
# Source text: (§3) Additionally, the cytotoxic activity was weighted by the IC50 of Andranone on 12 cell lines of neuronal origin, PFSK-1 (brain, cerebral hemisphere); A-172 (Glioblastoma, patient); SW1088 (Brain Fibroblast); Daoy (Brain, Cerebellum); 1321N1 (Normal brain cells) HT-29 (Colorectal Carcinoma); SW-620 (Colorectal carcinoma); H-358 (Lung carcinoma); A-549 (Lung carcinoma); LA-N-5 (Neuroblastoma); SK—N-SH (Neuroblastoma); and L-929 (Mouse fibrosarcoma) using Bevacizumab as a control. The IC50 determination of Andranone was carried out in microcultures in sixfold.
# [10] = system: SK-N-SH (Neuroblastoma); assay: In vitro cytotoxic activity IC50, SK-N-SH; format: cell-based, human
# Source text: as §3
# [11] = system: PFSK-1 (brain, cerebral hemisphere); assay: In vitro cytotoxic activity IC50, PFSK-1; format: cell-based, human
# Source text: as §3
# [12] = system: H-358 (Lung carcinoma); assay: In vitro cytotoxic activity IC50, H-358; format: cell-based, human
# Source text: as §3
# [13] = system: A-549 (Lung carcinoma); assay: In vitro cytotoxic activity IC50, A-549; format: cell-based, human
# Source text: as §3
# [14] = system: SW1088 (Brain Fibroblast); assay: In vitro cytotoxic activity IC50, SW1088; format: cell-based, human
# Source text: as §3
# [15] = system: Daoy (Brain, Cerebellum); assay: In vitro cytotoxic activity IC50, Daoy; format: cell-based, human
# Source text: as §3
# [16] = system: HT-29 (Colorectal Carcinoma); assay: In vitro cytotoxic activity IC50, HT-29; format: cell-based, human
# Source text: as §3
# [17] = system: SW-620 (Colorectal carcinoma); assay: In vitro cytotoxic activity IC50, SW-620; format: cell-based, human
# Source text: as §3
# [18] = system: A-172 (Glioblastoma); assay: In vitro cytotoxic activity IC50, A-172; format: cell-based, human
# Source text: as §3
# [19] = system: LA-N-5 (Neuroblastoma); assay: In vitro cytotoxic activity IC50, LA-N-5; format: cell-based, human
# Source text: as §3
# [20] = system: 1321N1 (Normal brain cells); assay: In vitro cytotoxic activity IC50, 1321N1; format: cell-based, human
# Source text: as §3
# [21] = system: human peripheral blood lymphocytes; assay: Micronucleus test in human peripheral blood lymphocytes; format: cell-based
# Procedure: […] At 44 h, cytochalasin B (4.5 μg/mL) was added to all cultures and at 72 h the lymphocytes were harvested by centrifugation at 1500 rpm for 10 min. The cell bud was divided into 2 parts, one to perform the micronucleus test and the other was kept in PBS (pH 7.5) at −80° C. to perform the RT-qPCR tests.
# For the micronucleus test, the first part of the cell bud was prefixed with 1 mL of Carnoy's fixative (3:1) and centrifuged at 1500 rpm for 10 min. The supernatant was removed, and the cell bud was resuspended. 5 mL of Carnoy fixative was added and centrifuged again at 1500 rpm for 10 min. This step was repeated 2 more times. Lamellae were made on slides using the drip technique and allowed to air dry. The samples were stained in 5% Giemsa dye and analyzed in the optical microscope at 40× to determine the frequency of micronuclei in 1000 cells (in duplicate).
molecule,measurement,setting,value
N.N.[Cl][Pt][Cl] [Cisplatin],Growth inhibition by cell line (%) U-251,[1]; 100 μM,65.9%
same,Growth inhibition by cell line (%) K-562,[2]; 100 μM,79.15%
same,Growth inhibition by cell line (%) COST-7,[3]; 100 μM,43.39%
same,Growth inhibition by cell line (%) PC-3,[4]; 100 μM,32.42%
same,Growth inhibition by cell line (%) SKUL,[5]; 100 μM,81.35%
same,Growth inhibition by cell line (%) HTC-15,[6]; 100 μM,87.49%
same,Growth inhibition by cell line (%) MCF-7,[7]; 100 μM,42.65%
same,"fluorescence analysis, cell membrane / cell death",[8],cell membrane alteration without being so obvious
Nc1ccc(O)c(C(=O)O)c1 [Mesalazine],inhibition at 100 µM,[1],6.3%
same,inhibition at 100 µM,[2],8.1%
same,inhibition at 100 µM,[3],< 3.1%
same,inhibition at 100 µM,[4],3.1%
same,inhibition at 100 µM,[5],< 3.1%
same,inhibition at 100 µM,[6],< 3.1%
same,inhibition at 100 µM,[7],11.9%
O=C(O)c1ccccc1O [Salicylic acid],inhibition at 100 µM,[1],6.8%
same,inhibition at 100 µM,[2],6.6%
same,inhibition at 100 µM,[3],11.2%
same,inhibition at 100 µM,[4],6.9%
same,inhibition at 100 µM,[5],10.1%
same,inhibition at 100 µM,[6],< 3.1%
same,inhibition at 100 µM,[7],4.9%
Bevacizumab: Bevacizumab used as a control in the IC50 determination,IC50,[9],126 µM
same,IC50,[10],88.4 µM
same,IC50,[11],31.2 µM
same,IC50,[12],115 µM
same,IC50,[13],105 µM
same,IC50,[14],47.3 µM
same,IC50,[15],29.4 µM
same,IC50,[16],38.4 µM
same,IC50,[17],27.2 µM
same,IC50,[18],41.4 µM
same,IC50,[19],79.3 µM
same,IC50,[20],39.5 µM
Bleomycin,IDN,[21]; Bleomycin 3.2 μg/mL,1.60 ± 0.06
same,IPBC,[21]; Bleomycin 3.2 mg/mL,1.56 ± 0.05
same,Relative cytotoxicity (%),[21]; Bleomycin 3.2 mg/mL,34.50%
same,frequency of MN,"[21]; positive control, 3.2 μg/mL, 72 h",significantly increased
